Measured values: ChEMBL document CHEMBL5465560, “Selectivity Literature for EUbOPEN Chemogenomic Library” (2024)

Key:
[1] = biological target: Serine/threonine-protein kinase 26 (Homo sapiens, UniProt Q9P289); assay: Selectivity interaction (Kinase panel (Z-LYTE Assay)) EUB0001632a STK26; settings: at 10 µM
[2] = biological target: T1, Serine/threonine-protein kinase TAO2 (Homo sapiens) (UniProt Q9UL54); assay: Selectivity interaction (Kinase panel (Z-LYTE Assay)) EUB0001632a TAOK2; settings: at 10 µM
T1 sequence (whole entry): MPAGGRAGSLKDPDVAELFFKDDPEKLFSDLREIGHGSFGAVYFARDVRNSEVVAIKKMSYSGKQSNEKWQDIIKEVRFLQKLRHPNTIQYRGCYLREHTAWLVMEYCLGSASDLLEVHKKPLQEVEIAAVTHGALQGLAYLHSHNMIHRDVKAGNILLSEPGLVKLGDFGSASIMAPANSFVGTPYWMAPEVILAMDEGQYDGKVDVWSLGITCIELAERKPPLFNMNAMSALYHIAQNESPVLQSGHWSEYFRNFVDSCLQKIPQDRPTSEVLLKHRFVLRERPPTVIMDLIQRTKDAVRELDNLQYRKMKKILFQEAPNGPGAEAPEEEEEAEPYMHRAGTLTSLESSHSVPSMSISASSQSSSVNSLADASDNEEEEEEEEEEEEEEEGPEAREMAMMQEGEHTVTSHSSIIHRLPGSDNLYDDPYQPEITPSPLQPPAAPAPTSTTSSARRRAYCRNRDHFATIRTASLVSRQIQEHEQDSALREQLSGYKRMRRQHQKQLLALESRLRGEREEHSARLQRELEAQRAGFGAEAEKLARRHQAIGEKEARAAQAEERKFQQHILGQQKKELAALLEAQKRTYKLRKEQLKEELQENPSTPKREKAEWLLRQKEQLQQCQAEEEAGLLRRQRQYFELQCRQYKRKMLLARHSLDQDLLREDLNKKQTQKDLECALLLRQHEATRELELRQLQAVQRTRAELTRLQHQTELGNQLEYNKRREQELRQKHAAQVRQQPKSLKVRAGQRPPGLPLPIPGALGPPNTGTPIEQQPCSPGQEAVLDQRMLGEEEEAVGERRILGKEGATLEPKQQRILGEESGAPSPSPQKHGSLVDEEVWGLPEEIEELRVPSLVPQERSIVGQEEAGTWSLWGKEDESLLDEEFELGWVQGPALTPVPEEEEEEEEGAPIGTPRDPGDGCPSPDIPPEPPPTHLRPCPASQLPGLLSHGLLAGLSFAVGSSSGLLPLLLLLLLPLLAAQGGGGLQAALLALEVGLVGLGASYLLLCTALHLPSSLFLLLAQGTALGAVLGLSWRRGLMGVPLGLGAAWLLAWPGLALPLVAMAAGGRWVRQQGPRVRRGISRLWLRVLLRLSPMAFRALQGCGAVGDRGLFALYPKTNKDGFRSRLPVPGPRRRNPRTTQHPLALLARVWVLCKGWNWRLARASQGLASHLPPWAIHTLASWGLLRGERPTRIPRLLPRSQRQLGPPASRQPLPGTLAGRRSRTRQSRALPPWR

[3] = biological target: 5-hydroxytryptamine receptor 2A (Homo sapiens, UniProt P28223); assay: Selectivity interaction (Safety Panel 44tm (Eurofins)) EUB0000162b HTR2A; settings: at 10 µM
[4] = biological target: Ribosomal protein S6 kinase beta-1 (Homo sapiens, UniProt P23443); assay: Selectivity interaction (KinomeScan (DiscoverX)) EUB0000695a RPS6KB1; settings: at 100 nM
[5] = biological target: Phosphatidylinositol 4,5-bisphosphate 3-kinase catalytic subunit gamma isoform (Homo sapiens) (UniProt P48736); assay: Selectivity interaction (KinomeScan (DiscoverX)) EUB0000045b PIK3CG
[6] = biological target: T2, Membrane-associated tyrosine- and threonine-specific cdc2-inhibitory kinase (Homo sapiens) (UniProt Q99640); assay: Selectivity interaction (KinomeScan (DiscoverX)) EUB0000045b PKMYT1
T2 sequence (whole entry): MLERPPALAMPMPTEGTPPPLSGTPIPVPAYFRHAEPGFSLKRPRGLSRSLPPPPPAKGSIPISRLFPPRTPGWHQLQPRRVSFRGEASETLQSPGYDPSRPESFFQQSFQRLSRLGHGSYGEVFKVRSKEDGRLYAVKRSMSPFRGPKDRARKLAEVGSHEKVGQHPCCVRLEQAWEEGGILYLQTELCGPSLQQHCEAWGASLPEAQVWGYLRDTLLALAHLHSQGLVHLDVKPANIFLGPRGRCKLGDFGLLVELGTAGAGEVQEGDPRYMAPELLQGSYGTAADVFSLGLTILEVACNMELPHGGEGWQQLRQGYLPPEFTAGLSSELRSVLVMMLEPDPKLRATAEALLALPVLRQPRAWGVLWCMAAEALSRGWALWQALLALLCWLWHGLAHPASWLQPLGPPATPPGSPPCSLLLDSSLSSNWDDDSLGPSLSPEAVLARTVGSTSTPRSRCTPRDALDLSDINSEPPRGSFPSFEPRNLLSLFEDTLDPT

[7] = biological target: T3, Serine/threonine-protein kinase haspin (Homo sapiens) (UniProt Q8TF76); assay: Selectivity interaction (KinomeScan (DiscoverX)) EUB0001550a GSG2; settings: at 1 µM
T3 sequence (whole entry): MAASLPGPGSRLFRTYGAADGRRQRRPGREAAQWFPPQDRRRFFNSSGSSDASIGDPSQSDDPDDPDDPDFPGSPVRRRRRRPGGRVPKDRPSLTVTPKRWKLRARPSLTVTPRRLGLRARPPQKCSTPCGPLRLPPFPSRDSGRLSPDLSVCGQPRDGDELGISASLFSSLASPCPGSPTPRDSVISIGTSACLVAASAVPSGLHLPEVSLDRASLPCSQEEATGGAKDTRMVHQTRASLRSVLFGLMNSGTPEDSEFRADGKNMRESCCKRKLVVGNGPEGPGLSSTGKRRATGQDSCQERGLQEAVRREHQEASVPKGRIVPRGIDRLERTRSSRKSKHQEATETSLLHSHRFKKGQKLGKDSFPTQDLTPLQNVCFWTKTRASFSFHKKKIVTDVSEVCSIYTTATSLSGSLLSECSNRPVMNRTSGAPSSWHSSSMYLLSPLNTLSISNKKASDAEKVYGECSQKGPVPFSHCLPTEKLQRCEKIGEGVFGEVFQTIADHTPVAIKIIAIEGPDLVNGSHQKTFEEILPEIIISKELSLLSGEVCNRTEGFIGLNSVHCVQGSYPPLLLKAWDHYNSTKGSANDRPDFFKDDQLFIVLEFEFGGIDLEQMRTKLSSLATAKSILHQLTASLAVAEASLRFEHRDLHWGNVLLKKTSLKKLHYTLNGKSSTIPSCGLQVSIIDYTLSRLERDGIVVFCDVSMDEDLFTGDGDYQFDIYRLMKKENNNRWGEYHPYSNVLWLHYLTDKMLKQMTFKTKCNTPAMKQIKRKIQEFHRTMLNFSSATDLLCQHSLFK

[8] = biological target: Interferon-induced, double-stranded RNA-activated protein kinase (Homo sapiens) (UniProt P19525); assay: Selectivity interaction (ActivX KiNativ screen (ex vivo kinase selectivity in human PBMCs)) EUB0001619a EIF2AK2; type: cell-based; settings: PBMC, at 1 µM
Sequence of Interferon-induced, double-stranded RNA-activated protein kinase (Homo sapiens) (P19525 whole entry): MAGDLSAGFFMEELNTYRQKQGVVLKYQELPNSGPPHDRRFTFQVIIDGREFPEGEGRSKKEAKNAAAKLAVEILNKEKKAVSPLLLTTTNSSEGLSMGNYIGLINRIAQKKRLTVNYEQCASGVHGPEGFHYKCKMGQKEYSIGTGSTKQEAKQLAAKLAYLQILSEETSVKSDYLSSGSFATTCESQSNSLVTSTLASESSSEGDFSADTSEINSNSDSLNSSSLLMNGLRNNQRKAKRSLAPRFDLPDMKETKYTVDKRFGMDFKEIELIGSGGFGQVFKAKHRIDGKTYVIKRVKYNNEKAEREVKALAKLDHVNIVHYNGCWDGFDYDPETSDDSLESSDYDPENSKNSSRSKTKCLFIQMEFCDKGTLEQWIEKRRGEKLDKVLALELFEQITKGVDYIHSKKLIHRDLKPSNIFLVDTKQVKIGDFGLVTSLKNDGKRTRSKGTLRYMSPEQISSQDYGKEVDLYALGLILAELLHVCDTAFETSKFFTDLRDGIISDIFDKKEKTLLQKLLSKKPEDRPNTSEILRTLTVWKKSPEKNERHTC

Sequence of Phosphatidylinositol 4,5-bisphosphate 3-kinase catalytic subunit gamma isoform (Homo sapiens) (P48736 whole entry, looked up, canonical isoform): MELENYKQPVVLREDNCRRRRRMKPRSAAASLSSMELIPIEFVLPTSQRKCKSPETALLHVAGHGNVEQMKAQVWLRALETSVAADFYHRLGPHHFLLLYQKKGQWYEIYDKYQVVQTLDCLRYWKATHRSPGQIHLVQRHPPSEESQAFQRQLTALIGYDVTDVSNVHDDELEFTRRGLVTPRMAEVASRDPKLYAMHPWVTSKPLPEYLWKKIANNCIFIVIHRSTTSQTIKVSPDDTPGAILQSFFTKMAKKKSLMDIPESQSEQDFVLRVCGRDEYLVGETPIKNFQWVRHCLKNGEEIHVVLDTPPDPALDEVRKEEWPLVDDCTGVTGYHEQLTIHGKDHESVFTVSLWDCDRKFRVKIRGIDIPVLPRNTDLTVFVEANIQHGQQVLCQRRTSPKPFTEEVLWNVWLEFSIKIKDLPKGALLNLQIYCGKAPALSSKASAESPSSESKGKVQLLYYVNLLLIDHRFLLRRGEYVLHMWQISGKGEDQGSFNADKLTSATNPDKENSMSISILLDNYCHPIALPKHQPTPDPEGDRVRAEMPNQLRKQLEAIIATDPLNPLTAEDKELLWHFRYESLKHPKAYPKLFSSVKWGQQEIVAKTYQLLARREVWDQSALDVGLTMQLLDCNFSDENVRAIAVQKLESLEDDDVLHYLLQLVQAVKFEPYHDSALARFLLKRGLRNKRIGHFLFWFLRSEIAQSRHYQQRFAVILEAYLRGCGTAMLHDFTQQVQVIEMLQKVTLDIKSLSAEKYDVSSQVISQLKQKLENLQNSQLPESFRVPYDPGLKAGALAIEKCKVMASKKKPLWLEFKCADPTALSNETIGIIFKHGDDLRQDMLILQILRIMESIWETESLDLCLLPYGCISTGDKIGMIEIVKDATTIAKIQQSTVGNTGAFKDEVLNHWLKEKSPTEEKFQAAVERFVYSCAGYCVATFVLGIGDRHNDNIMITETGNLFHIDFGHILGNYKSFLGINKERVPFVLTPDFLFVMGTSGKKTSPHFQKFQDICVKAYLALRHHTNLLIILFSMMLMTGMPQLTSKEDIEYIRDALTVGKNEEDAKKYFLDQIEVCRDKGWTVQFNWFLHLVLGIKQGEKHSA
Sequence of 5-hydroxytryptamine receptor 2A (P28223 whole entry): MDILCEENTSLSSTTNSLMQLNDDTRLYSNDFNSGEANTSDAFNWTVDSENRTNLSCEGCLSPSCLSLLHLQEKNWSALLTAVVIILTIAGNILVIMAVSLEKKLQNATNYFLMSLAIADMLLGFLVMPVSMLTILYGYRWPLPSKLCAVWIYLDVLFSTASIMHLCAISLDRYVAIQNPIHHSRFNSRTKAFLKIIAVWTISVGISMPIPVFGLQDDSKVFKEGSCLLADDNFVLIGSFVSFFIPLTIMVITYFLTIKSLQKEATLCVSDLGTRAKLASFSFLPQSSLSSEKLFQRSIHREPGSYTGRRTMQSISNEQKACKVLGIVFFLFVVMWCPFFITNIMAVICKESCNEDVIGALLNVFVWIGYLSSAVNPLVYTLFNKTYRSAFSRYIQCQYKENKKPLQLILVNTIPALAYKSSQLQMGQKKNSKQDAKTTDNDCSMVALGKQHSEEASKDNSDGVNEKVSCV
Sequence of Ribosomal protein S6 kinase beta-1 (P23443 whole entry, looked up, canonical isoform): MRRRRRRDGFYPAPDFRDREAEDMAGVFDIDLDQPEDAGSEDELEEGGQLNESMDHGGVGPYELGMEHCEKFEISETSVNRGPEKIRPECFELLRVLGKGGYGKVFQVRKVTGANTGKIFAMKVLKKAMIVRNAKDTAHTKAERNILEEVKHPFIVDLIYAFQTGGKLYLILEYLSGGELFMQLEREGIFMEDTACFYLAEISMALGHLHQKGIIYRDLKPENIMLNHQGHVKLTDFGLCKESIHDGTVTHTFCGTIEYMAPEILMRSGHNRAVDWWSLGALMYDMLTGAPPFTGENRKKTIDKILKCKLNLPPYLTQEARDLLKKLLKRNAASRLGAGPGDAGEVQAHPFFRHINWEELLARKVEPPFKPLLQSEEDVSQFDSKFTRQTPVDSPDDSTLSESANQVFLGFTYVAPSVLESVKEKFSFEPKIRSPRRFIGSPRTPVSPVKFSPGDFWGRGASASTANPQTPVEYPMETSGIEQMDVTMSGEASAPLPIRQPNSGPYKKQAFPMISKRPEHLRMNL
Sequence of Serine/threonine-protein kinase 26 (Q9P289 2-416 limits assumed): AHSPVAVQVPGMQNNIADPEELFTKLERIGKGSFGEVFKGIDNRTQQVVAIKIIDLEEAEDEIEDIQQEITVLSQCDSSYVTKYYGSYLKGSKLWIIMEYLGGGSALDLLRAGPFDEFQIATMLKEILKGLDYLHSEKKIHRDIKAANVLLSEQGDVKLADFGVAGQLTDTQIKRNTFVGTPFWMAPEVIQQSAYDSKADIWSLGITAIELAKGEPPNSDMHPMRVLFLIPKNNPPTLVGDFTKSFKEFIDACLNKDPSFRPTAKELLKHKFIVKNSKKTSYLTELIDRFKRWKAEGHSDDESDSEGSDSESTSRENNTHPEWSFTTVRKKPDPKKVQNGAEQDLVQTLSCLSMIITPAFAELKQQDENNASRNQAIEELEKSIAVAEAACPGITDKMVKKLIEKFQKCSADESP

Structure (SMILES): Cn1cc(-n2cnc3c(NCc4nc5cc(Cl)c(Cl)cc5[nH]4)nc(N4CCOCC4)nc32)cn1
- % of control [1]: 2.09%
- % of control [2]: 41.6%

Structure (SMILES): CN(C)C(=O)Cn1cc(-c2ccc(-c3cncc4ccccc34)cc2)cn1
- % of control [3]: 87%

Structure (SMILES): Cc1cc(F)c(C(=O)Nc2cccc(-c3nncn3C(C)C)n2)cc1-n1cnc(C2CC2)c1
- % of control [4]: 100%

Structure (SMILES): C=CC(=O)Nc1cc(-n2c(=O)ccc3cnc4ccc(-c5ccc(NS(C)(=O)=O)cc5)cc4c32)ccc1C
- % of control ([5]; at 1 µM): 2.8%
- % of control ([5]; at 10 µM): 0%
- % of control ([6]; at 1 µM): 77%
- % of control ([6]; at 10 µM): 100%

Structure (SMILES): CN(C)CC#Cc1ccc2[nH]c3c(c2c1)-c1nc(N)ncc1CCC3
- % of control [7]: 13%

Structure (SMILES): N#Cc1cccc(-c2c[nH]c3ncnc(N4CCOCC4)c23)c1
- % of inhibition [8]: 7%
